The assay deals with T1, human mGlu5a receptor (Homo sapiens, UniProt P41594).
T1 construct: expressed in transfected cells
As to the kind of experiment: Intracellular Ca2+ mobilization assay (mGlu5 PAM). It counts as cell-based. To be noted: for Emax: HEK293, maximal response in % of the maximal stimulatory effect obtained with saturating concentrations of L-glutamate, HEK-293 human mGlu5a cells, read-out: Eff. (%); for EC50: HEK-293 cells stably transfected with human mGlu5a receptor, L-glutamate added at EC20 (typically around 80 μM) after 10-30 min pre-incubation with test compound, read-out: EC50 (nM) mGlu5PAM. The method, then: A monoclonal HEK-293 cell line stably transfected with a cDNA encoding for the human mGlu5a receptor was generated; for the work with mGlu5 Positive Allosteric Modulators (PAMs), a cell line with low receptor expression levels and low constitutive receptor activity was selected to allow the differentiation of agonistic versus PAM activity. Cells were cultured according to standard protocols (Freshney, 2000) in Dulbecco's Modified Eagle Medium with high glucose supplemented with 1 mM glutamine, 10% (vol/vol) heat-inactivated bovine calf serum, Penicillin/Streptomycin, 50 μg/ml hygromycin and 15 μg/ml blasticidin (all cell culture reagents and antibiotics from Invitrogen, Basel, Switzerland).
About 24 hrs before an experiment, 5×10^4 cells/well were seeded in poly-D-lysine coated, black/clear-bottomed 96-well plates. The cells were loaded with 2.5 μM Fluo-4AM in loading buffer (1×HBSS, 20 mM HEPES) for 1 hr at 37° C. and washed five times with loading buffer. The cells were transferred into a Functional Drug Screening System 7000 (Hamamatsu, Paris, France), and 11 half logarithmic serial dilutions of test compound at 37° C. were added and the cells were incubated for 10-30 min. with on-line recording of fluorescence. Following this pre-incubation step, the agonist L-glutamate was added to the cells at a concentration corresponding to EC20 (typically around 80 μM) with on-line recording of fluorescence; in order to account for day-to-day variations in the responsiveness of cells, the EC20 of glutamate was determined immediately ahead of each experiment by recording of a full dose-response curve of glutamate.
Responses were measured as peak increase in fluorescence minus basal (i.e. fluorescence without addition of L-glutamate), normalized to the maximal stimulatory effect obtained with saturating concentrations of L-glutamate. Graphs were plotted with the % maximal stimulatory using XLfit, a curve fitting program that iteratively plots the data using Levenburg Marquardt algorithm. The single site competition analysis equation used was y=A+((B−A)/(1+((x/C)D))), where y is the % maximal stimulatory effect, A is the minimum y, B is the maximum y, C is the EC50, x is the log 10 of the concentration of the competing compound and D is the slope of the curve (the Hill Coefficient). From these curves the EC50 (concentration at which half maximal stimulation was achieved), the Hill coefficient as well as the maximal response in % of the maximal stimulatory effect obtained with saturating concentrations of L-glutamate were calculated.
A depression of the signal observed after addition of the EC20 concentration of L-glutamate was indicative of an inhibitory activity of the test compound.
(In general: A change in cytosolic calcium serves as a functional read-out for many receptors and channels.)

Our source for the Emax and EC50 values is patent publication US8530472B2, “Ethynyl derivatives” (Hoffmann-La Roche Inc., priority 2011, dated 2013).

What is called EC50 is the concentration that produces a half-maximal response.

T1 sequence (P41594 21-1180 isoform P41594-2 limits assumed): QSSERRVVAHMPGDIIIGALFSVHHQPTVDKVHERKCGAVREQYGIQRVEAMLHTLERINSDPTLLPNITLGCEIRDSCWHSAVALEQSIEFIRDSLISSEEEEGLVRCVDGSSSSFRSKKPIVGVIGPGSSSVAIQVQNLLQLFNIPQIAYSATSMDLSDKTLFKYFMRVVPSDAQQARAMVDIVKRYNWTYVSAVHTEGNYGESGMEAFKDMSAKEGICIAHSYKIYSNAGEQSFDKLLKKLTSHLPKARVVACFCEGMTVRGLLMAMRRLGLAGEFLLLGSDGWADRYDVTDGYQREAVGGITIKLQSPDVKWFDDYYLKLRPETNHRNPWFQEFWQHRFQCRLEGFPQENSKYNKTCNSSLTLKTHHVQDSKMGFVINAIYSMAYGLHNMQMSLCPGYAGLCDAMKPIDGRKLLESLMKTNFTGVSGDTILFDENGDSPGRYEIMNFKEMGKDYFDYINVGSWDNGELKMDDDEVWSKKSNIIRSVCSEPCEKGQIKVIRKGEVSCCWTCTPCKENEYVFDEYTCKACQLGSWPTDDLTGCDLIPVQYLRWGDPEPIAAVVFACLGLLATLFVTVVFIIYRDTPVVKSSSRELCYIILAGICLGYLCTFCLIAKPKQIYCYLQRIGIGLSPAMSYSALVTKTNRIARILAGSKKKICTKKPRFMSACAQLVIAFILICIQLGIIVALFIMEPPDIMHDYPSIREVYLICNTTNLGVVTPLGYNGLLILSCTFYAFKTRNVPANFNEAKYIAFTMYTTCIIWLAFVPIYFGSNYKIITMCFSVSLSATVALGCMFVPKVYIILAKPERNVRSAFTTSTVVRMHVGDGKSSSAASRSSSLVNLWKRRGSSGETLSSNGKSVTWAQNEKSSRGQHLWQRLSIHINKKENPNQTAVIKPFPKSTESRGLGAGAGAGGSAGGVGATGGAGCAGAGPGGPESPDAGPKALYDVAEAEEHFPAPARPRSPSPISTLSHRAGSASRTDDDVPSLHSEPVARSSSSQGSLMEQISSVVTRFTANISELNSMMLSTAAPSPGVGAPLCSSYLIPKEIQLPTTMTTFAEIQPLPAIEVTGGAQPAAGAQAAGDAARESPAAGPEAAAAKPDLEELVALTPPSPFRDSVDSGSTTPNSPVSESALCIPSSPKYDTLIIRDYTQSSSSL

Turning to `CCCC(C)C(=O)Nc1ccc(C#Cc2ccccc2)cn1` (racemic) [Example 5, (RS)-2-Methyl-pentanoic acid (5-phenylethynyl-pyridin-2-yl)-amide], the Emax was found to be 75% and the EC50 is 48 nM.

`CC(C)(C)C(=O)Nc1ccc(C#Cc2ccccc2)cn1` [Example 1, 2,2-Dimethyl-N-(5-phenylethynyl-pyridin-2-yl)-propionamide]: the Emax came to 72% and the EC50 was found to be 19 nM.

On to `CCCC(=O)Nc1ccc(C#Cc2ccccc2)cn1` [Example 2, N-(5-Phenylethynyl-pyridin-2-yl)-butyramide], for which the Emax worked out at 52% and the EC50 came out at 70 nM.

In the case of `CCCCC(=O)Nc1ccc(C#Cc2ccccc2)cn1` [Example 3, Pentanoic acid (5-phenylethynyl-pyridin-2-yl)-amide], the Emax is 84% and the EC50 came to 48 nM.

On to `CC(C)CC(=O)Nc1ccc(C#Cc2ccccc2)cn1` [Example 4, 3-Methyl-N-(5-phenylethynyl-pyridin-2-yl)-butyramide], for which the Emax came to 83% and the EC50 came to 71 nM.

On to `CSCC(=O)Nc1ccc(C#Cc2ccccc2)cn1` [Example 6, 2-Methylsulfanyl-N-(5-phenylethynyl-pyridin-2-yl)-acetamide], for which the Emax stood at 47% and the EC50 was 18 nM.

`CC(C)(C)C(=O)Nc1ncc(C#Cc2ccccc2)cn1` [Example 7, 2,2-Dimethyl-N-(5-phenylethynyl-pyrimidin-2-yl)-propionamide]: the Emax came out at 59% and the EC50 amounted to 56 nM.

As for `CN(C(=O)C(C)(C)C)c1ncc(C#Cc2ccccc2)cn1` [Example 8, 2,2,N-Trimethyl-N-(5-phenylethynyl-pyrimidin-2-yl)-propionamide], the Emax was found to be 74% and the EC50 came out at 52 nM.

As for `CC(C)(C)C(=O)Nc1ccc(C#Cc2ccccc2)nn1` [Example 9, 2,2-Dimethyl-N-(6-phenylethynyl-pyridazin-3-yl)-propionamide], the Emax turned out to be 73% and the EC50 turned out to be 6 nM.

With `COCC(=O)Nc1ccc(C#Cc2ccccc2)cn1` [Example 10, 2-Methoxy-N-(5-phenylethynyl-pyridin-2-yl)-acetamide], the Emax stood at 43% and the concentration for a half-maximal effect (EC50) came to 49 nM.

Consider `CC(C)(C)C(=O)Nc1ccc(C#Cc2cccc(F)c2)cn1` [Example 11, N-[5-(3-Fluoro-phenylethynyl)-pyridin-2-yl]-2,2-dimethyl-propionamide], for which the Emax worked out at 44% and the 50% effective concentration (EC50) stood at 15 nM.

`COC(C)(C)C(=O)Nc1ccc(C#Cc2ccccc2)cn1` [Example 12, 2-Methoxy-2-methyl-N-(5-phenylethynyl-pyridin-2-yl)-propionamide]: the Emax was found to be 68% and the EC50 amounted to 77 nM.

With `COC(C)(C)C(=O)Nc1ccc(C#Cc2cccc(F)c2)cn1` [Example 13, N-[5-(3-Fluoro-phenylethynyl)-pyridin-2-yl]-2-methoxy-2-methyl-propionamide], the Emax is 54% and the EC50 was 85 nM.

On to `COC(C)(C)C(=O)Nc1ccc(C#Cc2cc(F)ccc2F)cn1` [Example 14, N-[5-(2,5-Difluoro-phenylethynyl)-pyridin-2-yl]-2-methoxy-2-methyl-propionamide], for which the Emax worked out at 47% and the EC50 worked out at 94 nM.

Consider `CC(C)(C(=O)Nc1ccc(C#Cc2cccc(Cl)c2)cn1)C(F)(F)F` [Example 15, N-[5-(3-Chloro-phenylethynyl)-pyridin-2-yl]-3,3,3-trifluoro-2,2-dimethyl-propionamide], for which the Emax was 46% and the concentration giving a half-maximal response (EC50) was 19 nM.

Turning to `CC(C)(C)C(=O)Nc1ccc(C#Cc2cccc(Cl)c2)nn1` [Example 16, N-[6-(3-Chloro-phenylethynyl)-pyridazin-3-yl]-2,2-dimethyl-propionamide], the Emax came to 45% and the EC50 came out at 7 nM.
